Experimental data from US5322772A (Children's Research Institute, priority 1991, dated 1994).

Assays:
[1] = target: FKBP; conditions: FKBP isolated from yeast, calf thymus and human T cells (JURKAT); cited from earlier work
[2] = system: immune responses; conditions: fold greater than cyclosporine A; cited from earlier work
[3] = system: 50-58 kDa protein; assay: LH-20 binding assay with purified 50-58 kDa binding protein from JURKAT cytosol; parameters: species or system human; conditions: for Kd: 50-58 kDa protein from peripheral blood mononuclear leukocytes and JURKAT cytosol
Method: E. The reaction mixture, typically a 100 μl aliquot run in duplicate, is poured onto a column of convenient dimension, such as 0.8×7.0 cm of a molecular sieve matrix such as LH-20 Sephadex (Pharmacia Fine Chemicals, Piscataway, N.J.).
The S-100 fraction was further filtered (0.45 μm pore size membrane, Gelman Sciences), the filtrate (2.9 mg protein) passed through a 600×7.5 nun Bio-Sil-125 HPLC exclusion column at a flow rate of 1.0 ml/minute in 10 mM phosphate buffer, pH 6.8; protein elution was monitored at 280 nm. Fractions (1 ml) were collected and analyzed for binding of ^3 H-dihydro FK-506 using the previously described LH-20 assay, Donnelly et al., 1991, above, which is herein incorporated by reference. Specific binding was determined by assaying each fraction without (total binding) and with ([…]) an excess of unlabeled FK-506.
The 58 kDa protein was purified from 1.4×10^10 human T-cells (JURKAT). The S-100 fraction (10 ml) was centrifuged at 2500×g for 1 hour at 4° C. in a 30 kDa Centriprep™ concentrator (Amicon Corp., Danvers, Ma.). The concentrate (1 ml) was diluted with 15 ml of 10 mM phosphate buffer, pH 6.8, and concentrated down to 5 ml. This step removed proteins of less than 30 kDa, i.e., cyclophilin and FKBP, from the S-100 fraction.
[…] FK-506 and CsA drugs was refocused under the same conditions, using only the ampholytes contained in the 2.7 ml fraction (diluted to 55 ml with deionized water). Focusing was complete when a constant voltage of 2200 was reached.
The 20 fractions were assayed for drug binding as above. […] This fraction (3.02 mg in 2.7 ml) was chromatographed in a Bio-Sil-125 HPLC column at a flow rate of 1.0 ml/minute in 10 mM phosphate buffer, pH 6.8. Fractions representing proteins of 50-60 kDa were screened for binding to both FK-506 and CsA.
Binding fractions were probed and chromatographed on a Beckman TSK CM-25W Spherogel column (26×4.6 mm) at a flow rate of 0.5 ml/minute in 10 mM phosphate buffer, pH 6.8. Fractions containing binding activity were probed and used for binding assays.
The binding assay was the LH-20 assay of Example 1.
The LH binding assay was used for generating the competition curve of FIG. 4.

[4] = system: Candida albicans; conditions: especially Candida albicans; cited from earlier work
[5] = system: experimental immunopathies; conditions: rats; cited from earlier work
[6] = system: 17 kDa (presumably cyclophilin) and 50 kDa cyclosporine A binding proteins; assay: Binding of 3H-cyclosporine A to HPLC fractions of JURKAT S-100 cytosol (LH-20 assay); parameters: species or system human; conditions: rapamycin at 70 nM; either protein (17 kDa, 50 kDa)
Description: The experimental conditions of Example 1A were repeated, except that ^3 H-cyclosporine A and unlabeled cyclosporine A were substituted for FK-506.

[7] = target: FKBP (Homo sapiens, UniProt P62942); conditions: cited from earlier work
Sequence of FKBP (Homo sapiens, UniProt P62942) (P62942 whole entry): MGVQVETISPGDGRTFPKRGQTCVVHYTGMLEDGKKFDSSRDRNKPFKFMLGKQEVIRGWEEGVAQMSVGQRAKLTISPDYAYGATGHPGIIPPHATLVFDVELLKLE

Row | Structure (SMILES) | Kd [1] | potency of inhibiting immune responses relative to cyclosporine A [2] | inhibition of CsA binding ([3]; 50-58 kDa protein) | Kd [3] | activity against Candida species [4] | development of experimental immunopathies and formation of IgE-like antibody [5] | effect on binding of 3H-CsA ([3]; RAP at 300 nM, purified 58 kDa protein) | IC50 ([3]; inhibition of specific binding of 3H-dihydro FK-506 to purified 58 kDa protein, read-out: B50 value) | inhibition of specific binding of 3H-dihydro FK-506 ([3]; purified 58 kDa protein, RAP 0.005-500 nM) | effect on binding of cyclosporine A [6] | inhibition of isomerase activity of FKBP [7]
1 | C=CC[C@@H]1/C=C(\C)C[C@H](C)C[C@H](OC)[C@H]2O[C@@](O)(C(=O)C(=O)N3CCCC[C@H]3C(=O)O[C@H](/C(C)=C/[C@@H]3CC[C@@H](O)[C@H](OC)C3)[C@H](C)[C@@H](O)CC1=O)[C@H](C)C[C@@H]2OC [FK-506] | 0.4 nM | 100-500 fold | inhibited by FK-506 in a dose-dependent manner | 2 nM |  |  |  |  |  |  | 
2 | CO[C@H]1C[C@@H]2CC[C@@H](C)[C@@](O)(O2)C(=O)C(=O)N2CCCC[C@H]2C(=O)O[C@H]([C@H](C)C[C@@H]2CC[C@@H](O)[C@H](OC)C2)CC(=O)[C@H](C)/C=C(\C)[C@@H](O)[C@@H](OC)C(=O)[C@H](C)C[C@H](C)/C=C/C=C/C=C/1C [RAP, Rapamycin] |  |  |  | 0.1 nM | highly active | totally prevented | unaffected | 0.1 nM | inhibited in a dose-dependent manner | did not affect | potent inhibitor
